Measured values published in the supplement of paper PMC10307832.

What was measured:
Assay in all cases: relative viability (nuclei count vs DMSO), 5 days (fraction); higher = more cells survive
Calu-6 = test system: Calu-6
How it was run: (§1)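 Values are medians from duplicate plates. Each reflects relative viability, defined as the nuclei count of treated wells over that of vehicle wells. Lung cancer cell lines in 1536-well plates were pin-tool dosed one day after seeding with one drug alone or with a fixed anchor-drug dose plus five library-drug doses (not always all listed) in √10 steps, then fixed, stained and imaged at 4× after 5 days.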

EBC-1 = test system: EBC-1
How it was run: as §1

IA-LM = test system: IA-LM
How it was run: as §1

NCI-H1299 = test system: NCI-H1299
How it was run: as §1

NCI-H1563 = test system: NCI-H1563
How it was run: as §1

NCI-H1703 = test system: NCI-H1703
How it was run: as §1

A549 = test system: A549
How it was run: as §1

Compound `O=C(O)CCCCC(CCSCc1ccccc1)SCc1ccccc1` (stereo not given) [CPI-613] + CC(C)C[C@H](NC(=O)[C@H](Cc1ccccc1)NC(=O)c1cnccn1)B(O)O [Bortezomib] (partner 0.002 µM) has a relative viability (Calu-6; first compound 5 µM) of 0.945, a relative viability (Calu-6; first compound 15.81 µM) of 0.887 and a relative viability (Calu-6; first compound 50 µM) of 0.879. The relative viability (Calu-6; first compound 158.11 µM) was 0.241, the relative viability (Calu-6; first compound 500 µM) was 0.0719 and the relative viability (EBC-1; first compound 5 µM) was 0.576. For the same compound, the relative viability (EBC-1; first compound 15.81 µM) was 0.51, the relative viability (EBC-1; first compound 50 µM) was 0.481 and the relative viability (EBC-1; first compound 158.11 µM) was 0.0828. It also gave a relative viability (EBC-1; first compound 500 µM) of 0.0663, a relative viability (IA-LM; first compound 5 µM) of 0.729 and a relative viability (IA-LM; first compound 15.81 µM) of 0.697. The relative viability (IA-LM; first compound 50 µM) was 0.758, the relative viability (IA-LM; first compound 158.11 µM) was 0.0988 and the relative viability (IA-LM; first compound 500 µM) was 0.0045. The relative viability (NCI-H1299; first compound 5 µM) was 1.01, the relative viability (NCI-H1299; first compound 15.81 µM) was 1.01 and the relative viability (NCI-H1299; first compound 50 µM) was 1.05. It also gave a relative viability (NCI-H1299; first compound 158.11 µM) of 1.06, a relative viability (NCI-H1299; first compound 500 µM) of 1.03 and a relative viability (NCI-H1563; first compound 5 µM) of 0.956. For the same compound, the relative viability (NCI-H1563; first compound 15.81 µM) was 0.859, the relative viability (NCI-H1563; first compound 50 µM) was 0.848 and the relative viability (NCI-H1563; first compound 158.11 µM) was 0.508. The relative viability (NCI-H1563; first compound 500 µM) was 0.208, the relative viability (NCI-H1703; first compound 5 µM) was 0.29 and the relative viability (NCI-H1703; first compound 15.81 µM) was 0.375. For the same compound, the relative viability (NCI-H1703; first compound 50 µM) was 0.316, the relative viability (NCI-H1703; first compound 158.11 µM) was 0.174 and the relative viability (NCI-H1703; first compound 500 µM) was 0.102.

Work on `O=c1[nH]c2ccccc2n1C1CCN(CCCC(c2ccc(F)cc2)c2ccc(F)cc2)CC1` [Pimozide] + CC1(C)CCC(c2ccc(Cl)cc2)=C(CN2CCN(c3ccc(C(=O)NS(=O)(=O)c4ccc(N[C@H](CCN5CCOCC5)CSc5ccccc5)c(S(=O)(=O)C(F)(F)F)c4)cc3)CC2)C1 [Navitoclax] (partner 0.5 µM) yielded a relative viability (A549; first compound 0.08 µM) of 1.28, a relative viability (A549; first compound 0.253 µM) of 1.31 and a relative viability (A549; first compound 0.8 µM) of 1.15. The relative viability (A549; first compound 2.53 µM) was 1.14, the relative viability (A549; first compound 8 µM) was 0.987 and the relative viability (Calu-6; first compound 0.08 µM) was 0.785. It also gave a relative viability (Calu-6; first compound 0.253 µM) of 0.805, a relative viability (Calu-6; first compound 0.8 µM) of 0.844 and a relative viability (Calu-6; first compound 2.53 µM) of 0.704. For the same compound, the relative viability (Calu-6; first compound 8 µM) was 0.774, the relative viability (EBC-1; first compound 0.08 µM) was 0.356 and the relative viability (EBC-1; first compound 0.253 µM) was 0.493. The relative viability (EBC-1; first compound 0.8 µM) was 0.367, the relative viability (EBC-1; first compound 2.53 µM) was 0.309 and the relative viability (EBC-1; first compound 8 µM) was 0.211. The relative viability (IA-LM; first compound 0.08 µM) was 0.686, the relative viability (IA-LM; first compound 0.253 µM) was 0.723 and the relative viability (IA-LM; first compound 0.8 µM) was 0.923. The relative viability (IA-LM; first compound 2.53 µM) was 0.746, the relative viability (IA-LM; first compound 8 µM) was 0.728 and the relative viability (NCI-H1299; first compound 0.08 µM) was 1.04. The relative viability (NCI-H1299; first compound 0.253 µM) was 0.969, the relative viability (NCI-H1299; first compound 0.8 µM) was 0.99 and the relative viability (NCI-H1299; first compound 2.53 µM) was 1.03. For the same compound, the relative viability (NCI-H1299; first compound 8 µM) was 1.03, the relative viability (NCI-H1703; first compound 0.08 µM) was 1.05 and the relative viability (NCI-H1703; first compound 0.253 µM) was 0.99. The relative viability (NCI-H1703; first compound 0.8 µM) was 0.982, the relative viability (NCI-H1703; first compound 2.53 µM) was 0.801 and the relative viability (NCI-H1703; first compound 8 µM) was 0.782.

Work on `O=c1[nH]c2ccccc2n1C1CCN(CCCC(c2ccc(F)cc2)c2ccc(F)cc2)CC1` [Pimozide] + CC(C)C[C@H](NC(=O)[C@H](Cc1ccccc1)NC(=O)c1cnccn1)B(O)O [Bortezomib] (partner 0.002 µM) yielded a relative viability (Calu-6; first compound 0.08 µM) of 1, a relative viability (Calu-6; first compound 0.253 µM) of 1.15 and a relative viability (Calu-6; first compound 0.8 µM) of 0.969. The relative viability (Calu-6; first compound 2.53 µM) was 1.04, the relative viability (Calu-6; first compound 8 µM) was 0.856 and the relative viability (EBC-1; first compound 0.08 µM) was 0.517. For the same compound, the relative viability (EBC-1; first compound 0.253 µM) was 0.557, the relative viability (EBC-1; first compound 0.8 µM) was 0.532 and the relative viability (EBC-1; first compound 2.53 µM) was 0.439. It also gave a relative viability (EBC-1; first compound 8 µM) of 0.381, a relative viability (IA-LM; first compound 0.08 µM) of 0.789 and a relative viability (IA-LM; first compound 0.253 µM) of 0.792. For the same compound, the relative viability (IA-LM; first compound 0.8 µM) was 0.856, the relative viability (IA-LM; first compound 2.53 µM) was 0.901 and the relative viability (IA-LM; first compound 8 µM) was 0.692. For the same compound, the relative viability (NCI-H1299; first compound 0.08 µM) was 0.984, the relative viability (NCI-H1299; first compound 0.253 µM) was 1.05 and the relative viability (NCI-H1299; first compound 0.8 µM) was 0.975. It also gave a relative viability (NCI-H1299; first compound 2.53 µM) of 1.01, a relative viability (NCI-H1299; first compound 8 µM) of 0.976 and a relative viability (NCI-H1563; first compound 0.08 µM) of 0.848. It also gave a relative viability (NCI-H1563; first compound 0.253 µM) of 0.936, a relative viability (NCI-H1563; first compound 0.8 µM) of 0.855 and a relative viability (NCI-H1563; first compound 2.53 µM) of 0.67. The relative viability (NCI-H1563; first compound 8 µM) was 0.583, the relative viability (NCI-H1703; first compound 0.08 µM) was 0.206 and the relative viability (NCI-H1703; first compound 0.253 µM) was 0.337. For the same compound, the relative viability (NCI-H1703; first compound 0.8 µM) was 0.379, the relative viability (NCI-H1703; first compound 2.53 µM) was 0.227 and the relative viability (NCI-H1703; first compound 8 µM) was 0.306.
